Measured values reported in PMC4556830, “The Effect of MGCD0103 on CYP450 Isoforms Activity of Rats by Cocktail Method” (BioMed Research International, 2015).

What was measured:
CYP2C11 = test: Cocktail method, tolbutamide probe: effect of MGCD0103 on CYP2C11 activity; format: in vivo, rat
Method: (§1) Forty rats (220 ± 20 g) were randomly divided into four different dosages of MGCD0103 groups (Low group, Medium group, High group, and control group with 10 rats in each group). MGCD0103 was dissolved in corn oil as suspension at three different concentrations (20, 40, and 80 mg/mL). Three different MGCD0103 groups (Low group, Medium group, and High group) were respectively given MGCD0103 20, 40, and 80 mg/kg one time by intragastric administration at every morning and last for 7 days. Control group were given saline by same administration method.
(§2) Blood (0.3 mL) samples were collected into heparinized 1.5 mL polythene tubes from the tail vein at 0.0833, 0.5, 1, 2, 3, 4, 6, 8, 12, 24, and 48 h after intragastric administration of six probe drugs. 100 μL of plasma was obtained from blood sample after centrifugation at 4000 g for 10 min. In a 1.5 mL centrifuge tube, 200 μL of acetonitrile (containing 50 ng/mL IS) was added into 100 μL of collected plasma sample. After vortex-mixing for 1.0 min, the sample was centrifuged at 13000 g for 15 min. Then supernatant (2 μL) was injected into the UPLC-MS/MS system for analysis.
(§3) Concentration of plasma probe drugs versus time was analyzed by Version 3.0 Data Analysis System (Wenzhou Medical University, China). The main pharmacokinetic parameters of the MGCD0103 group and control group were analyzed by SPSS l8.0 statistical software.

CYP1A2 = biological target: T1, CYP1A2 (Rattus norvegicus, UniProt P04799); test: Cocktail method, phenacetin probe: effect of MGCD0103 on CYP1A2 activity; format: in vivo; settings: 7-day intragastric MGCD0103 20, 40, 80 mg/kg
T1 construct: we investigated the effects of 7-day intragastric administration of MGCD0103 on the activity of CYP enzymes in vivo; from tissue; host or cells: living rats (in vivo)
T1 sequence (P04799 1-513): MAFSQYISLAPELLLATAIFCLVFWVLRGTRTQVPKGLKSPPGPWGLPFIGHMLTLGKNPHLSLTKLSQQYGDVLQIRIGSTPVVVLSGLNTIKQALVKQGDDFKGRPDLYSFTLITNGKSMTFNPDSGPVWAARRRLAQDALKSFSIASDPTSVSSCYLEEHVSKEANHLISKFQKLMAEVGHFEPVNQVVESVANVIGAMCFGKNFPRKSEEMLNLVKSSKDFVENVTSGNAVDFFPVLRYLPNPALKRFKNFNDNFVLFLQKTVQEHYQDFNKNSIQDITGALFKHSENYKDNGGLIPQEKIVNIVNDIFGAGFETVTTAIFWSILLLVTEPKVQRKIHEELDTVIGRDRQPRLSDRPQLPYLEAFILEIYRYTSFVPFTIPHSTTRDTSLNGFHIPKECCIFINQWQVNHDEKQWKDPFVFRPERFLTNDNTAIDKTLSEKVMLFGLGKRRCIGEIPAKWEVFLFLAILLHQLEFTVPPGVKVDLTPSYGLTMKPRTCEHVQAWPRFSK
Method: as §1, §2, §3

CYP2B1 = biological target: T2, CYP2B1 (Rattus norvegicus, UniProt P00176); test: Cocktail method, bupropion probe: effect of MGCD0103 on CYP2B1 activity; format: in vivo; settings: 7-day intragastric MGCD0103 20, 40, 80 mg/kg
T2 construct: we investigated the effects of 7-day intragastric administration of MGCD0103 on the activity of CYP enzymes in vivo; from tissue; host or cells: living rats (in vivo)
T2 sequence (P00176 1-491): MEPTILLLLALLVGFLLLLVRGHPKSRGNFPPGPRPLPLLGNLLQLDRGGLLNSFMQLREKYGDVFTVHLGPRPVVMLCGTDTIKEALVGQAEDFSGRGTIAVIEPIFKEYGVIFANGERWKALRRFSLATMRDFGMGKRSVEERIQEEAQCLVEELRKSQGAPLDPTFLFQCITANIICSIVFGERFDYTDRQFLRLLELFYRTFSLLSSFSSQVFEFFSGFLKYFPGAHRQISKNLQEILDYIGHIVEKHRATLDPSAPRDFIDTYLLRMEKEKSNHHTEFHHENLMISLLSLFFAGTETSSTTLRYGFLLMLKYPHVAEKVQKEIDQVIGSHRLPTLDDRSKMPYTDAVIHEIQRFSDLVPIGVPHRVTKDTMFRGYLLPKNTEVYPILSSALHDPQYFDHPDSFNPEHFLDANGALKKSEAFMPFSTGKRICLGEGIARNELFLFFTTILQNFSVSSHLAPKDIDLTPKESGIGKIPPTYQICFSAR
Method: as §1, §2, §3

CYP2D4 = biological target: T3, CYP2D4 (Rattus norvegicus, UniProt Q64680); test: Cocktail method, metoprolol probe: effect of MGCD0103 on CYP2D4 activity; format: in vivo; settings: 7-day intragastric MGCD0103 20, 40, 80 mg/kg
T3 construct: we investigated the effects of 7-day intragastric administration of MGCD0103 on the activity of CYP enzymes in vivo; from tissue; host or cells: living rats (in vivo)
T3 sequence (Q64680 1-500): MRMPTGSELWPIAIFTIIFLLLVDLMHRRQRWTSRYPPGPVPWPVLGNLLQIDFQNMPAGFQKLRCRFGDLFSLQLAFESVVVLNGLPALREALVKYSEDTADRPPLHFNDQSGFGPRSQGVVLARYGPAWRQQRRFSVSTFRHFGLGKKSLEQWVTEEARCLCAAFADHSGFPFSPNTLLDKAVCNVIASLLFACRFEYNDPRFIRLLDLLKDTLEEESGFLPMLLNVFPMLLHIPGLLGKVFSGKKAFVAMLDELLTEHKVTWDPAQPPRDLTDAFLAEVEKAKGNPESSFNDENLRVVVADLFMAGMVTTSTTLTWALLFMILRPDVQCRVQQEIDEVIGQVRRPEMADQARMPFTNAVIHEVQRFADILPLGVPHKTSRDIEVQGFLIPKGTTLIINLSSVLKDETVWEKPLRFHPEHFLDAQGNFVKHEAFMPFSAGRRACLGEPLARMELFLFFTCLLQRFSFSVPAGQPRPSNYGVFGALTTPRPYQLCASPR
Method: as §1, §2, §3

CYP3A2 = biological target: T4, CYP3A2 (Rattus norvegicus, UniProt P05183); test: Cocktail method, testosterone probe: effect of MGCD0103 on CYP3A2 activity; format: in vivo; settings: 7-day intragastric MGCD0103 20, 40, 80 mg/kg
T4 construct: we investigated the effects of 7-day intragastric administration of MGCD0103 on the activity of CYP enzymes in vivo; from tissue; host or cells: living rats (in vivo)
T4 sequence (P05183 1-504): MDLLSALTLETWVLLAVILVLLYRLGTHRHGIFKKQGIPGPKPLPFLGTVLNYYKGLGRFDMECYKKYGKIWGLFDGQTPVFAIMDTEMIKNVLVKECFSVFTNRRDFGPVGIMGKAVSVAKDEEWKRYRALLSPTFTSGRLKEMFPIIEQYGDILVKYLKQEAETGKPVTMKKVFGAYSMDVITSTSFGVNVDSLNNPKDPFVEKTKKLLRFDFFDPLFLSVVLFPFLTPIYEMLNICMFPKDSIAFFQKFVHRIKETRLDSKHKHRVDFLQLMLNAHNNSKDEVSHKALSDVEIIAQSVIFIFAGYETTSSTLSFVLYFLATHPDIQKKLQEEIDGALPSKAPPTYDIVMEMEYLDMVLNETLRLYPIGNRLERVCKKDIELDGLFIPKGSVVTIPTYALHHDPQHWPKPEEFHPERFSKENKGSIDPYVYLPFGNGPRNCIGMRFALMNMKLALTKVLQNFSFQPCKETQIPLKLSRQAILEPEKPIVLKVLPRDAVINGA
Method: as §1, §2, §3

liver = test: Liver histopathology (HE staining) after MGCD0103; format: in vivo, rat
Method: After pharmacokinetic properties analysis, rats were deeply anesthetized with 10% chloral hydrate (i.p., […]). The livers of control group and MGCD0103 treated groups were rapidly isolated and immersed in freshly prepared 4% w/v formaldehyde (0.1 M phosphate buffer, pH 7.2) for 48 h and then embedded in paraffin. Then 5 μm thick histologic sections were prepared and stained with routine HE method (hematoxylin and eosin). The morphological changes of liver were observed under light microscope.

Nc1ccccc1NC(=O)c1ccc(CNc2nccc(-c3cccnc3)n2)cc1 [MGCD0103, Mocetinostat]
effect on metabolism of tolbutamide (CYP2C11; 7-day intragastric administration of MGCD0103, high dosage (80 mg/kg), rat): slightly induces | effect on activities of CYP2C11 (CYP2C11; continuous 7-day intragastric administration of MGCD0103, rats): slightly induces | effect on activity of CYP1A2 enzyme (CYP1A2): not able to induce or inhibit | effect on activity of CYP2B1 enzyme (CYP2B1): not able to induce or inhibit | effect on activity of CYP2D4 enzyme (CYP2D4): not able to induce or inhibit | effect on activity of CYP3A2 enzyme (CYP3A2): not able to induce or inhibit | hepatotoxicity (pathological changes of liver) (liver; 20, 40, 80 mg/kg i.g. 7 days, probe drugs also given): hepatotoxic and its toxicity is dose-dependent | morphological changes of liver (liver; high dose group, 80 mg/kg i.g. 7 days): liver cells with steatosis and small, atrophy, hyperchromatic karyopyknosis | morphological changes of liver (liver; low dose group, 20 mg/kg i.g. 7 days): liver cells become slightly edematous | morphological changes of liver (liver; middle dose group, 40 mg/kg i.g. 7 days): liver cells experienced extensive fatty changes
